Data published in PubChem BioAssay (NCI).
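Five concentrations, 48 hours, 96-well plates. TGI denotes the concentration required for complete inhibition of growth.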

Key:
Test in all cases: growth of human tumour cells (NCI), 48 h
T-47D breast = tested on: T-47D breast
NCI-H23 lung = tested on: NCI-H23 lung
SNB-75 CNS = tested on: SNB-75 CNS
HCC-2998 colon = tested on: HCC-2998 colon
HOP-62 NSCLC = tested on: HOP-62 NSCLC
LOX IMVI melanoma = tested on: LOX IMVI melanoma
EKVX NSCLC = tested on: EKVX NSCLC
U251 CNS = tested on: U251 CNS
OVCAR-5 ovarian = tested on: OVCAR-5 ovarian
TK-10 renal = tested on: TK-10 renal
MOLT-4 leukemia = tested on: MOLT-4 leukemia

Row | Structure (SMILES) | TGI (T-47D breast) | TGI (NCI-H23 lung) | TGI (SNB-75 CNS) | TGI (HCC-2998 colon) | TGI (HOP-62 NSCLC) | TGI (LOX IMVI melanoma) | TGI (EKVX NSCLC) | TGI (U251 CNS) | TGI (OVCAR-5 ovarian) | TGI (TK-10 renal) | TGI (MOLT-4 leukemia)
1 | Cc1nc2c(nc1C)-c1c(c3c(n1C)C(=O)CCC3)C(=O)C2=O | 0.0932 µM | 2.85 µM | 2.14 µM | 4.06 µM | 2.37 µM | 0.397 µM | 2.65 µM | 0.533 µM | 2.72 µM | 4.51 µM | –
2 | c1ccc(P(CCP(c2ccccn2)c2ccccn2)c2ccccc2)cc1 | > 100 µM | > 100 µM | 54 µM | > 100 µM | > 100 µM | > 100 µM | 9 µM | > 100 µM | > 100 µM | > 100 µM | > 100 µM
3 | CC(C)OP(=O)(OC(C)C)/C(C#N)=C/c1ccco1 | > 100 µM | > 100 µM | > 100 µM | > 100 µM | > 100 µM | > 100 µM | > 100 µM | > 100 µM | > 100 µM | > 100 µM | > 100 µM
4 | Cc1ccc2c(sc(-c3ccc4c(c3)sc(-c3ccc5c(c3)sc(-c3ccc(N(C)C)cc3)[n+]5C)[n+]4C)[n+]2C)c1S(=O)(=O)O (tested in a mixture with another compound) | > 100 µM | > 100 µM | > 100 µM | > 100 µM | – | > 100 µM | > 100 µM | > 100 µM | > 100 µM | > 100 µM | > 100 µM
5 | CC(C)(C)OC(=O)N(O)CCCn1cnc2c(N)ncnc21 | > 100 µM | > 100 µM | > 100 µM | > 100 µM | > 100 µM | > 100 µM | > 100 µM | > 100 µM | > 100 µM | > 100 µM | > 100 µM
6 | O=C(/C=C1\C[C@H]2C=Nc3ccccc3C(=O)N2C1)NCCCCNC(=O)/C=C1\C[C@H]2C=Nc3ccccc3C(=O)N2C1 | 22.3 µM | 27 µM | 31.9 µM | 32.9 µM | 38.5 µM | 6.35 µM | 33.7 µM | 11.3 µM | 34.4 µM | 23.8 µM | –
7 | C=C(C)CC1(O)C(=O)C(OCC)=C1OCC (stereo not drawn) | > 100 µM | > 100 µM | > 100 µM | – | > 100 µM | > 100 µM | > 100 µM | > 100 µM | > 100 µM | > 100 µM | > 100 µM
8 | C/C1=C/C(C)CC(C)OC(=O)C(C)NC(=O)C(Cc2ccc(O)c(I)c2)N(C)C(=O)C(C)NC(=O)C(C)C1 (stereo not drawn) | 29.1 µM | 44.4 µM | < 0.01 µM | 5.2 µM | < 0.01 µM | < 0.01 µM | – | 0.892 µM | > 100 µM | 0.046 µM | 23.7 µM
9 | O=C(Cc1csc(N=Nc2c(O)[nH]c3ccccc23)n1)Nc1ccccc1 | > 100 µM | > 100 µM | 86.9 µM | 94.3 µM | 52.2 µM | > 100 µM | 52.8 µM | 55.2 µM | > 100 µM | > 100 µM | > 100 µM
10 | CC(=O)NNc1nc(C)c(C(/C=C/c2ccc([N+](=O)[O-])cc2)=N/NC(N)=S)s1 | > 100 µM | > 100 µM | > 100 µM | > 100 µM | > 100 µM | > 100 µM | > 100 µM | > 100 µM | > 100 µM | > 100 µM | > 100 µM
11 | Nc1ncc(Cl)c(NCC2(CO)CC(CCc3ccccc3)C2)n1 (stereo not drawn) | > 100 µM | > 100 µM | 99.4 µM | > 100 µM | > 100 µM | > 100 µM | > 100 µM | > 100 µM | > 100 µM | > 100 µM | > 100 µM
12 | O=C(O)CNc1ccc(C(=O)O)cc1 | > 100 µM | > 100 µM | > 100 µM | – | > 100 µM | > 100 µM | > 100 µM | > 100 µM | > 100 µM | > 100 µM | > 100 µM
13 | COc1cc(C(=O)O[C@@H]2[C@@H](OC(=O)c3cc(OC)c(OC)c(OC)c3)[C@@H](OC)O[C@@H]3CO[C@@H](c4ccccc4)O[C@@H]23)cc(OC)c1OC | > 100 µM | > 100 µM | > 100 µM | > 100 µM | > 100 µM | > 100 µM | > 100 µM | > 100 µM | > 100 µM | > 100 µM | > 100 µM
14 | CN(C)Cc1cc(C(C)(C)C)ccc1-c1ccc(C(C)(C)C)cc1CN(C)C | > 100 µM | > 100 µM | > 100 µM | 23.5 µM | > 100 µM | > 100 µM | > 100 µM | > 100 µM | > 100 µM | > 100 µM | > 100 µM
15 | CCOC(=O)c1sc(N/N=C2\NC(=O)/C(=C/c3ccc([N+](=O)[O-])cc3)S2)nc1C | 45.4 µM | 80.5 µM | 74.6 µM | 85.3 µM | 38 µM | 46.1 µM | 43.4 µM | > 100 µM | > 100 µM | > 100 µM | 31.1 µM
16 | CC1(C)CC(=O)C2=C(C1)NC1=C(C(=O)CC(C)(C)C1)C2c1ccc([N+](=O)[O-])cc1 | > 100 µM | > 100 µM | 69.6 µM | > 100 µM | > 100 µM | > 100 µM | > 100 µM | > 100 µM | > 100 µM | > 100 µM | > 100 µM
17 | Cc1nn(C(=O)c2ccncc2)c2c1C(c1ccccc1)SC(N)=N2 (stereo not drawn) | > 10 µM | > 10 µM | > 10 µM | > 10 µM | > 10 µM | > 10 µM | > 10 µM | > 10 µM | > 10 µM | > 10 µM | > 10 µM
18 | COc1cc(C2SC(N)=Nc3c2c(C)nn3C(=O)c2ccccc2O)ccc1O (stereo not drawn) | > 10 µM | > 10 µM | > 10 µM | > 10 µM | > 10 µM | > 10 µM | > 10 µM | > 10 µM | > 10 µM | > 10 µM | > 10 µM
19 | C/C=C1/CN2CCC3(O)c4ccccc4N4C=C(C(=O)OC)C1CC2C43O (stereo not drawn) | > 100 µM | > 100 µM | > 100 µM | > 100 µM | > 100 µM | > 100 µM | > 100 µM | > 100 µM | > 100 µM | > 100 µM | > 100 µM
